Measurements from BindingDB's records for doi:10.1021/acschembio.7b00041 (Bc Cancer Agency, 2017).

Legend:
Assay in all cases: ATPase enzyme assay
[1] = target: T1, ATP-dependent RNA helicase DHX29 (Homo sapiens, UniProt Q7Z478)
T1 sequence (Q7Z478 whole entry): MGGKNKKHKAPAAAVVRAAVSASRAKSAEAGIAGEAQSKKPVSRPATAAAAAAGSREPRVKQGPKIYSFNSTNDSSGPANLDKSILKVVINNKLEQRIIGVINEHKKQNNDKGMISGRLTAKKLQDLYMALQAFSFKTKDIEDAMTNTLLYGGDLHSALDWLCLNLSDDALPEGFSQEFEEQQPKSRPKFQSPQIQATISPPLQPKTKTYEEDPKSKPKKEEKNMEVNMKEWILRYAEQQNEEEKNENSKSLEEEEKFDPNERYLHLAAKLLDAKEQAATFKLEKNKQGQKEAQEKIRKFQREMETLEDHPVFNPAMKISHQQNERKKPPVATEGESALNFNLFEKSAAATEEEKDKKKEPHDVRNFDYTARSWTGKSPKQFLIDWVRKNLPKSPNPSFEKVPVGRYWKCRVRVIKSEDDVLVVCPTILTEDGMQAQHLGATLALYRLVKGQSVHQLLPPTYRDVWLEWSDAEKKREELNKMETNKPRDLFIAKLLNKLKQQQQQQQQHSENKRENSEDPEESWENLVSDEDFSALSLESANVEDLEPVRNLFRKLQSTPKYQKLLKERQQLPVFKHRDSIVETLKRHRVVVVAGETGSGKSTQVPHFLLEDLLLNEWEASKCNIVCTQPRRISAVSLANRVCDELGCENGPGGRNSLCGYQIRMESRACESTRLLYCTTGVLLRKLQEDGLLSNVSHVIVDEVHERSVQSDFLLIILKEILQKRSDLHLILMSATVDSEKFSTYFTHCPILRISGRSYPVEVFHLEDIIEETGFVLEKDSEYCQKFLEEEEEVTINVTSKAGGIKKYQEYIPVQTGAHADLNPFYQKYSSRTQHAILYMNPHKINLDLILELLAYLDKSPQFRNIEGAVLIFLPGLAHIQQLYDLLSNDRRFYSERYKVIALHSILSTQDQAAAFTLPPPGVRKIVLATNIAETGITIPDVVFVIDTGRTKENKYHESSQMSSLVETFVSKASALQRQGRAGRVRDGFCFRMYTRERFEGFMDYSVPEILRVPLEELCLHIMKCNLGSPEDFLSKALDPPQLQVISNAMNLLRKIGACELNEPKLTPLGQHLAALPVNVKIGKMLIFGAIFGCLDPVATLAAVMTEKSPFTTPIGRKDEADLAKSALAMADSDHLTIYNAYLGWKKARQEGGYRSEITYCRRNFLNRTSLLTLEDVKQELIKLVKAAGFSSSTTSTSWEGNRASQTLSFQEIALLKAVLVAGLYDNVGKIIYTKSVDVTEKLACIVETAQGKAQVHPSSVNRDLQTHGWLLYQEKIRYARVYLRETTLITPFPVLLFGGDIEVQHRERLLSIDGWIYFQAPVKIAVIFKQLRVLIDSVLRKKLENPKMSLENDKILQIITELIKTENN
Experimental: (§1) Inhibitory activity was assessed under the following conditions: 350 uM ATP/1.5 ug mL−1 RNA indicated by black; 35 uM ATP/1.5 ug mL−1 RNA indicated by red; 3.5 uM ATP/1.5 ug mL−1 RNA indicated by blue; 35 uM ATP/60 ug mL−1 RNA indicated by green (n = 4, mean +/- standard deviation).

[2] = target: Eukaryotic initiation factor 4A-I (Homo sapiens, UniProt P60842)
Experimental: as §1

[3] = target: Eukaryotic initiation factor 4A-II (Homo sapiens, UniProt Q14240)
Experimental: as §1

[4] = target: Eukaryotic initiation factor 4A-III (Homo sapiens, UniProt P38919)
Experimental: as §1

[5] = target: U5 small nuclear ribonucleoprotein 200 kDa helicase (Homo sapiens, UniProt O75643)
Experimental: as §1

Chain of Eukaryotic initiation factor 4A-II (Q14240 whole entry): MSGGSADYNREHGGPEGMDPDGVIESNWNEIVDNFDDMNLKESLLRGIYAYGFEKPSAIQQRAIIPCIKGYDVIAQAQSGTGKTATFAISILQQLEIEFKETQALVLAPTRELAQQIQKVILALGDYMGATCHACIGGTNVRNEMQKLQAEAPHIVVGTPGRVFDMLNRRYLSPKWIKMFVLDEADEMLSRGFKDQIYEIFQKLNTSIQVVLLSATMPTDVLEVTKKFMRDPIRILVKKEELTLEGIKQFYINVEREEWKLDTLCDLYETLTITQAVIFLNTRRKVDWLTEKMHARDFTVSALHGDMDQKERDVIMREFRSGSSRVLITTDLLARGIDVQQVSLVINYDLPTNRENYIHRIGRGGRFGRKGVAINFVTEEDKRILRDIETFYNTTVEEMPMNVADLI
Chain of Eukaryotic initiation factor 4A-I (P60842 whole entry): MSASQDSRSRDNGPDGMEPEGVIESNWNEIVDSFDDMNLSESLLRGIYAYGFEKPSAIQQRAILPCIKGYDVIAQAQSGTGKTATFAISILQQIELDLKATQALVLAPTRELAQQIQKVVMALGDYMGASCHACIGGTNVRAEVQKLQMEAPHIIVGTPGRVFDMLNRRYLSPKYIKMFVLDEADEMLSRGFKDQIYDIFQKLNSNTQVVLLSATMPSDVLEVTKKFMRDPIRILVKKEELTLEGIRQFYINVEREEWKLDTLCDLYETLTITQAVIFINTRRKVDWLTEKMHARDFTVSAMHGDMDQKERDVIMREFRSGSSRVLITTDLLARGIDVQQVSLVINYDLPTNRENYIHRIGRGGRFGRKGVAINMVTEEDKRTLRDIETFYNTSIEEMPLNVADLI
Chain of Eukaryotic initiation factor 4A-III (P38919 whole entry): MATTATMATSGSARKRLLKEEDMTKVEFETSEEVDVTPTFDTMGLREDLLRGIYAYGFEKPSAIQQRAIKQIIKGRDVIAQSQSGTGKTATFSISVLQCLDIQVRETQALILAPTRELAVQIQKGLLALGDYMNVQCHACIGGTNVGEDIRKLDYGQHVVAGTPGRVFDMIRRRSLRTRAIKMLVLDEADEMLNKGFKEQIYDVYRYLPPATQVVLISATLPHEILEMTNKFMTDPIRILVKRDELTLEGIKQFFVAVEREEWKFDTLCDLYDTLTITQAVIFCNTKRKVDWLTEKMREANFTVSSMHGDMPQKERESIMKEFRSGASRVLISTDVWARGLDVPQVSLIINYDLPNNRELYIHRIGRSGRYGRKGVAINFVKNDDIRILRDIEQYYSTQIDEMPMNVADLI
Chain of U5 small nuclear ribonucleoprotein 200 kDa helicase (O75643 whole entry): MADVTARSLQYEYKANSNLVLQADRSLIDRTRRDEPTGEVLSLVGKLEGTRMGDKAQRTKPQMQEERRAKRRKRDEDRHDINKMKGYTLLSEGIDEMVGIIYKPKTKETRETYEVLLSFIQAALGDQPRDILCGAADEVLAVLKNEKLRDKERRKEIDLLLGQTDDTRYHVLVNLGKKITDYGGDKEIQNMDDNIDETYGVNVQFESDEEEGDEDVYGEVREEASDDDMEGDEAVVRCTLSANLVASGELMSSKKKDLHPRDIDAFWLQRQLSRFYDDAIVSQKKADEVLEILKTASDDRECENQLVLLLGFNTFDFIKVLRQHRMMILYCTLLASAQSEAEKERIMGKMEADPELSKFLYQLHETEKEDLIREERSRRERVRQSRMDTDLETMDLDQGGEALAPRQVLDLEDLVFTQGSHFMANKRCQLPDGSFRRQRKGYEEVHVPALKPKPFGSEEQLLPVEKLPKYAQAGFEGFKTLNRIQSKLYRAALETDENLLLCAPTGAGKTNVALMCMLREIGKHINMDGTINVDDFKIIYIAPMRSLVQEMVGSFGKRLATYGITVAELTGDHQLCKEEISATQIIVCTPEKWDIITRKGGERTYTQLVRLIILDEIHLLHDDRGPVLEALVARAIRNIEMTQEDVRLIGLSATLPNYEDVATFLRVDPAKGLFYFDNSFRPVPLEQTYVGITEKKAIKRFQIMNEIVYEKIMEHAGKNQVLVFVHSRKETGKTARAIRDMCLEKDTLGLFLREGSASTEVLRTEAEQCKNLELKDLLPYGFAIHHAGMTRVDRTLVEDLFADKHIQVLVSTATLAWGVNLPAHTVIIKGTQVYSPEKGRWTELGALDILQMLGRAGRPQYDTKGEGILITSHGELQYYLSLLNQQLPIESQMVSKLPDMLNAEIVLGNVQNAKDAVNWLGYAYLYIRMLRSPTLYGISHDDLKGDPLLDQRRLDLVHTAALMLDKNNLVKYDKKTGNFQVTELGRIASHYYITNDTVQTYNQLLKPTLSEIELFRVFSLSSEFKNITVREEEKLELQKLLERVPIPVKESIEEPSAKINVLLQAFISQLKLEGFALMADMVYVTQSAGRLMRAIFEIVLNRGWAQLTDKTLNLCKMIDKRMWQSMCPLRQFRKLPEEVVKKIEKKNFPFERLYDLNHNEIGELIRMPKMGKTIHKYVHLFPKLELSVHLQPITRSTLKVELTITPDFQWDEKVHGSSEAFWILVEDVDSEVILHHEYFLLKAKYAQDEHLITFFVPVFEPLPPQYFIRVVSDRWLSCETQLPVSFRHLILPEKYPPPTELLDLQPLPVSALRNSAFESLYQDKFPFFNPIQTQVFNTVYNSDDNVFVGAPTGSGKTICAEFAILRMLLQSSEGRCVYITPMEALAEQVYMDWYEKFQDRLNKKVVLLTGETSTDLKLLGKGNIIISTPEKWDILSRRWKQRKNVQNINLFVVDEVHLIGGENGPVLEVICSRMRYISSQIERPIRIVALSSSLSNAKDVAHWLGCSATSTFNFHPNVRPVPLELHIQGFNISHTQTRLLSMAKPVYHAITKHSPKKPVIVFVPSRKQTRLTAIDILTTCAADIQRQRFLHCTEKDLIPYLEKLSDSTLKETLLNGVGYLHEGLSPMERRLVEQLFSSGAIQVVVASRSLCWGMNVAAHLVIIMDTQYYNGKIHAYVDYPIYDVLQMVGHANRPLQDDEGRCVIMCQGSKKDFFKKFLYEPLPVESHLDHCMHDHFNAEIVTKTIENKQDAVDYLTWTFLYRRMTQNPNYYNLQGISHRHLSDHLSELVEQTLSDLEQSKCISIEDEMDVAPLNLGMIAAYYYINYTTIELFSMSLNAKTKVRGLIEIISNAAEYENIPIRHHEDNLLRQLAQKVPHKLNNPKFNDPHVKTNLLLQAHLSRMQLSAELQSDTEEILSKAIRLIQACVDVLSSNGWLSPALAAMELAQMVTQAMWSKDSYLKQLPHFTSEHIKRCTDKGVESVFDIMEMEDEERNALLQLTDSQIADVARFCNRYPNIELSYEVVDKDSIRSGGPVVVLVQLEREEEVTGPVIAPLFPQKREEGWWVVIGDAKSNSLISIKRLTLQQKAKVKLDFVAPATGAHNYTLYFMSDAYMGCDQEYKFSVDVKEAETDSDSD

IC50 [1]: > 100 µM
IC50 [2]: > 100 µM
IC50 [3]: > 100 µM
IC50 [4]: 0.11 µM
IC50 [5]: > 100 µM
SMILES: O=C(c1cnn2cc(Br)ccc12)N1CCN(C(=O)c2ccc(Br)cc2)[C@@H](c2ccc(Cl)cc2)C1 [eIF4A3 inhibitor, 2]
